Source: ChEMBL document CHEMBL5303573, “Mapping human microbiome drug metabolism by gut bacteria and their genes” (Nature, 2019)

What was measured:
[1] = victivallis vadensis, 12 h, 2 µM
Description: The drug is tested on Victivallis vadensis strain: ATCC BAA-548 for biotransformation. The drug concentrations were measured before and after a 12-h incubation by liquid-chromatography-coupled mass spectrometry (LC–MS)

[2] = molecular target: T1, Acyltransferase 3 domain-containing protein (Phocaeicola dorei, UniProt B6W2J3); assay: (§1) The drug is tested on Bacteroides dorei strain: DSM17855 for biotransformation. The drug concentrations were measured before and after a 12-h incubation by liquid-chromatography-coupled mass spectrometry (LC–MS); format: ADME; set-up: dose 2 uM; conditions: 2 µM
T1 sequence (B6W2J3 whole entry): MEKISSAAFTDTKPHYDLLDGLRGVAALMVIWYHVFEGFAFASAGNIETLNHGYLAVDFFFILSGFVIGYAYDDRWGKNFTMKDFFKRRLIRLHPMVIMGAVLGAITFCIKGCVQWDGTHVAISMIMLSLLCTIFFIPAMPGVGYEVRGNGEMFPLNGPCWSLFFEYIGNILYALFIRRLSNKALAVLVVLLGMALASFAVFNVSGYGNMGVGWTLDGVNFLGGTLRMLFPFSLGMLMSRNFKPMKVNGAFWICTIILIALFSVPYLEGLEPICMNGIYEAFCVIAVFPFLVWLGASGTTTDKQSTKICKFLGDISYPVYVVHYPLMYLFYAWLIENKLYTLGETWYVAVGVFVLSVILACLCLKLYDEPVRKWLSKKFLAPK

[3] = molecular target: T2, Steroid 5-alpha reductase C-terminal domain-containing protein (Phocaeicola dorei, UniProt B6W0N3); assay: as §1; format: ADME; set-up: dose 2 uM; conditions: 2 µM
T2 sequence (B6W0N3 whole entry): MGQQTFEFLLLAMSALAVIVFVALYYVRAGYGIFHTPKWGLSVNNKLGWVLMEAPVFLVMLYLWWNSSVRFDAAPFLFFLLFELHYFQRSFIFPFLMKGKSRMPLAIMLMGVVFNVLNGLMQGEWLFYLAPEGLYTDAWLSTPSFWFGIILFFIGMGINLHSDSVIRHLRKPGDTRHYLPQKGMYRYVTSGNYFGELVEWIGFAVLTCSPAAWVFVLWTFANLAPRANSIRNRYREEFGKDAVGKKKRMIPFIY

Esterase = molecular target: T3, Esterase (Phocaeicola dorei, UniProt B6W2J6); assay: as §1; format: ADME; set-up: dose 2 uM; conditions: 2 µM
T3 sequence (B6W2J6 whole entry): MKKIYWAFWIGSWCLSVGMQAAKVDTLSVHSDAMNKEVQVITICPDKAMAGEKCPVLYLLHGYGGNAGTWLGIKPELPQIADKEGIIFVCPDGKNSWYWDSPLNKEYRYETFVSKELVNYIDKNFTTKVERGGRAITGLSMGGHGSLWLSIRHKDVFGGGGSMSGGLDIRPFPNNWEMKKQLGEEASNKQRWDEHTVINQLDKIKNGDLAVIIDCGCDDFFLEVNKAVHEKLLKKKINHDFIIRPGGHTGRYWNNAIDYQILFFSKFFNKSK

[4] = molecular target: T4, Nitroreductase domain-containing protein (Phocaeicola dorei, UniProt B6VU18); assay: as §1; format: ADME; set-up: dose 2 uM; conditions: 2 µM
T4 sequence (B6VU18 whole entry): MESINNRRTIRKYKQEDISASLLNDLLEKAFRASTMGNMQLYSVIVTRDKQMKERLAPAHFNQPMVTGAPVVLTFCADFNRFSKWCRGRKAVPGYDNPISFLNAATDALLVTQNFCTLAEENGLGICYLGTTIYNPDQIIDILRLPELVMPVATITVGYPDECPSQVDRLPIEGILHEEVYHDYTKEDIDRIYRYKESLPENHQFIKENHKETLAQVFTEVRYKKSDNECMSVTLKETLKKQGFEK

[5] = molecular target: T5, Nitroreductase domain-containing protein (Phocaeicola dorei, UniProt B6W3P3); assay: as §1; format: ADME; set-up: dose 2 uM; conditions: 2 µM
T5 sequence (B6W3P3 whole entry): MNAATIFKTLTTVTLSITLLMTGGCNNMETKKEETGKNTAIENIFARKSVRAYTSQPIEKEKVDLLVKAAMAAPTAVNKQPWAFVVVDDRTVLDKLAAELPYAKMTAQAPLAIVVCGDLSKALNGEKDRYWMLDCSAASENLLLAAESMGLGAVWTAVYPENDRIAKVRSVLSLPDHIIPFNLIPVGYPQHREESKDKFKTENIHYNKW

[6] = anaerostipes sp., 12 h, 2 µM
Description: The drug is tested on Anaerostipes sp. strain: fecal isolate for biotransformation. The drug concentrations were measured before and after a 12-h incubation by liquid-chromatography-coupled mass spectrometry (LC–MS)

[7] = The drug is tested on Subdoligranulum variabile strain: DSM15176 for biotransformation. The drug concentrations were measured before and after a 12-h incubation by liquid-chromatography-coupled mass spectrometry (LC–MS); conditions: 2 µM
GDSL-like protein [8] = molecular target: T6, GDSL-like protein (Collinsella aerofaciens, UniProt A4E7D0); assay: (§2) The drug is tested on Collinsella aerofaciens strain: ATCC25986 for biotransformation. The drug concentrations were measured before and after a 12-h incubation by liquid-chromatography-coupled mass spectrometry (LC–MS); format: ADME; set-up: dose 2 uM; conditions: 2 µM
T6 sequence (A4E7D0 whole entry): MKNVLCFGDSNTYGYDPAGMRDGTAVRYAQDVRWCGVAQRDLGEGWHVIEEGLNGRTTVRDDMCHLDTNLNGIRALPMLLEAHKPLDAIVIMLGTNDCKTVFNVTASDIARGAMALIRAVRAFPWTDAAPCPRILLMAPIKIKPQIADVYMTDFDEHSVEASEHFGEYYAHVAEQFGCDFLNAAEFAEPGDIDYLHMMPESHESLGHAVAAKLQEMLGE

GDSL-like protein [9] = molecular target: T7, GDSL-like protein (Collinsella aerofaciens, UniProt A4E8S4); assay: as §2; format: ADME; set-up: dose 2 uM; conditions: 2 µM
T7 sequence (A4E8S4 whole entry): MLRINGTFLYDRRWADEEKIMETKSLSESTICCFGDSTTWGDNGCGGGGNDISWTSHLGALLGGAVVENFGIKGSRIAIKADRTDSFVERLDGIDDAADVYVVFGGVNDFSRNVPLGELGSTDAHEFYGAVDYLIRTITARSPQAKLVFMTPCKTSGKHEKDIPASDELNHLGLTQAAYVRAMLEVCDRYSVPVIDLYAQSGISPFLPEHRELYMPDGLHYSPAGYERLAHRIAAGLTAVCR

[10] = The drug is tested on Clostridium symbiosum strain: ATCC14940 for biotransformation. The drug concentrations were measured before and after a 12-h incubation by liquid-chromatography-coupled mass spectrometry (LC–MS); conditions: 2 µM
[11] = The drug is tested on Bacteroides sp. WH2 strain: WH2 for biotransformation. The drug concentrations were measured before and after a 12-h incubation by liquid-chromatography-coupled mass spectrometry (LC–MS); conditions: bacteroides sp. wh2, 12 h, 2 µM
[12] = bacteroides fragilis, 12 h, 2 µM
Description: The drug is tested on Bacteroides fragilis strain: NCTC 9343 for biotransformation. The drug concentrations were measured before and after a 12-h incubation by liquid-chromatography-coupled mass spectrometry (LC–MS)

[13] = The drug is tested on Eggerthella lenta strain: ATCC25559 for biotransformation. The drug concentrations were measured before and after a 12-h incubation by liquid-chromatography-coupled mass spectrometry (LC–MS); conditions: 2 µM

Bacterial Biotransformation [1] | Bacterial Biotransformation [2] | Bacterial Biotransformation [3] | Bacterial Biotransformation (Esterase) | Bacterial Biotransformation [4] | Bacterial Biotransformation [5] | Bacterial Biotransformation [6] | Bacterial Biotransformation [7] | Bacterial Biotransformation (GDSL-like protein [8]) | Bacterial Biotransformation (GDSL-like protein [9]) | Bacterial Biotransformation [10] | Bacterial Biotransformation [11] | Bacterial Biotransformation [12] | Bacterial Biotransformation [13] | SMILES
Compound NOT metabolized | Compound NOT metabolized | Compound metabolized | Compound NOT metabolized | Compound NOT metabolized | Compound NOT metabolized | Compound metabolized | Compound NOT metabolized | Compound NOT metabolized | Compound NOT metabolized | Compound metabolized | Compound metabolized | Compound metabolized |  | C#C[C@]1(OC(C)=O)CC[C@H]2[C@@H]3CCC4=CC(=O)CC[C@@H]4[C@H]3CC[C@@]21C [NORETHINDRONE ACETATE]
Compound metabolized | Compound NOT metabolized | Compound NOT metabolized | Compound NOT metabolized | Compound NOT metabolized | Compound NOT metabolized | Compound metabolized |  | Compound NOT metabolized | Compound metabolized | Compound metabolized | Compound metabolized | Compound metabolized |  | CC(=O)OCC(=O)[C@@]1(OC(C)=O)[C@@H](C)C[C@H]2[C@@H]3C[C@H](F)C4=CC(=O)C=C[C@]4(C)[C@@]3(F)[C@@H](O)C[C@@]21C [DIFLORASONE DIACETATE]
Compound metabolized | Compound NOT metabolized | Compound NOT metabolized | Compound NOT metabolized | Compound NOT metabolized | Compound NOT metabolized | Compound metabolized |  | Compound NOT metabolized | Compound NOT metabolized | Compound metabolized | Compound metabolized | Compound metabolized | Compound metabolized | COc1ccc([C@@H]2Sc3ccccc3N(CCN(C)C)C(=O)[C@@H]2OC(C)=O)cc1 [DILTIAZEM]
 | Compound NOT metabolized | Compound metabolized | Compound NOT metabolized | Compound NOT metabolized | Compound NOT metabolized | Compound NOT metabolized |  | Compound NOT metabolized | Compound NOT metabolized | Compound NOT metabolized | Compound metabolized | Compound metabolized | Compound NOT metabolized | C#C[C@]1(O)CC[C@H]2[C@@H]3CCC4=CC(=O)CC[C@@H]4[C@H]3CC[C@@]21CC [LEVONORGESTREL]
Compound metabolized | Compound NOT metabolized | Compound NOT metabolized | Compound metabolized | Compound NOT metabolized | Compound NOT metabolized | Compound NOT metabolized |  | Compound NOT metabolized | Compound metabolized | Compound NOT metabolized | Compound metabolized | Compound metabolized |  | CC(=O)OCC(CCn1cnc2cnc(N)nc21)COC(C)=O [FAMCICLOVIR]
Compound NOT metabolized | Compound metabolized | Compound NOT metabolized | Compound NOT metabolized | Compound NOT metabolized | Compound NOT metabolized | Compound NOT metabolized | Compound NOT metabolized | Compound NOT metabolized | Compound NOT metabolized | Compound NOT metabolized | Compound NOT metabolized | Compound NOT metabolized | Compound NOT metabolized | N#Cc1ccc2c(c1)N(CCCN1CCC(O)CC1)c1ccccc1S2 [PERICIAZINE]
